ChEMBL document CHEMBL1137005 (Bioorg Med Chem Lett, 2009)

Columns and labels:
Epoxide hydrolase 1 = target: T1, Epoxide hydrolase 1 (Homo sapiens, UniProt P07099); assay: Inhibition of human microsomal epoxide hydrolase
T1 sequence (P07099 whole entry): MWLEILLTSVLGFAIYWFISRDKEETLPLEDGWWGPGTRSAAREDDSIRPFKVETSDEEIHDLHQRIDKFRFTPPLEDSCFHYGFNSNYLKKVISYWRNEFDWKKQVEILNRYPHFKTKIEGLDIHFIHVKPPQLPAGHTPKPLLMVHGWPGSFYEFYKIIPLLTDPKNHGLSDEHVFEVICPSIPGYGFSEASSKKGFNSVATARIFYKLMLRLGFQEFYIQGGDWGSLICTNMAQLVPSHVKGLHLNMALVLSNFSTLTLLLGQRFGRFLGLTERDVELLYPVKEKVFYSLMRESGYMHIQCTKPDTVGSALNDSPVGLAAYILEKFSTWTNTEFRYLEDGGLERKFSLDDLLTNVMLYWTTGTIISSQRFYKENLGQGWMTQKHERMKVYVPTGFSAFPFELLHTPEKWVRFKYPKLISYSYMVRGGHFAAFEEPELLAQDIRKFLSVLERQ

[1] = target: T2, Bifunctional epoxide hydrolase 2 (Homo sapiens, UniProt P34913); assay: Inhibition of human soluble epoxide hydrolase
T2 sequence (P34913 whole entry): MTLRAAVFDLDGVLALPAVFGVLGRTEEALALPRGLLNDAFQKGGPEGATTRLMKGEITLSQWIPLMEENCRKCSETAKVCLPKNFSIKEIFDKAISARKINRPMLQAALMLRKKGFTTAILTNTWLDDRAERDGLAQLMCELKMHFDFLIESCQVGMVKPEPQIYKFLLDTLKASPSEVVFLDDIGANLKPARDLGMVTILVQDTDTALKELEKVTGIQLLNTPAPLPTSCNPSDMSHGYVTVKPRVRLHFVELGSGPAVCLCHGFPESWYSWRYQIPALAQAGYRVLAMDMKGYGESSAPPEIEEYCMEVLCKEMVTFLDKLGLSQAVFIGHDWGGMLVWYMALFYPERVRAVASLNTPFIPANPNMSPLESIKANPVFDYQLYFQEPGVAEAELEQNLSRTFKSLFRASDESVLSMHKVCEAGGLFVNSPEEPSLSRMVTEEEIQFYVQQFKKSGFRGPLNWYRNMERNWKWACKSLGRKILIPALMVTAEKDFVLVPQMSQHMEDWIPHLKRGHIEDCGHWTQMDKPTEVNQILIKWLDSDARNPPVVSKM

[2] = target: T3, Bifunctional epoxide hydrolase 2 (Rattus norvegicus, UniProt P80299); assay: Inhibition of rat soluble epoxide hydrolase
T3 sequence (P80299 whole entry): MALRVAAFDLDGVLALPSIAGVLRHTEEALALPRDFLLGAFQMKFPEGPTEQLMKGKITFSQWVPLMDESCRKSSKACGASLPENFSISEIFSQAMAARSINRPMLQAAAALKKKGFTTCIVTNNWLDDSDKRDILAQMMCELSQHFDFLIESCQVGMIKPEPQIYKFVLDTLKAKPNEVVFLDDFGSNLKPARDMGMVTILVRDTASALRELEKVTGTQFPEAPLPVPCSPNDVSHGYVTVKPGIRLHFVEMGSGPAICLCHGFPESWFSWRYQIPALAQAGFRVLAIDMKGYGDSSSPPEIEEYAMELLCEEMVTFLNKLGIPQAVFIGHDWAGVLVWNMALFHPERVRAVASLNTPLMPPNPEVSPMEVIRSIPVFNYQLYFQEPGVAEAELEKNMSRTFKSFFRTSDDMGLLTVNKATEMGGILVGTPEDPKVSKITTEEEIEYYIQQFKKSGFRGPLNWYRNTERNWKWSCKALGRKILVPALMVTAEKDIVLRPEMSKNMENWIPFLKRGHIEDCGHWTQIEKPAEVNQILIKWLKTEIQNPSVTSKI

Cytochrome P450 2C9 = Cytochrome P450 2C9 (Homo sapiens, UniProt P11712); assay: Inhibition of CYP2C9; type: ADME
Sequence of Cytochrome P450 2C9 (P11712 whole entry): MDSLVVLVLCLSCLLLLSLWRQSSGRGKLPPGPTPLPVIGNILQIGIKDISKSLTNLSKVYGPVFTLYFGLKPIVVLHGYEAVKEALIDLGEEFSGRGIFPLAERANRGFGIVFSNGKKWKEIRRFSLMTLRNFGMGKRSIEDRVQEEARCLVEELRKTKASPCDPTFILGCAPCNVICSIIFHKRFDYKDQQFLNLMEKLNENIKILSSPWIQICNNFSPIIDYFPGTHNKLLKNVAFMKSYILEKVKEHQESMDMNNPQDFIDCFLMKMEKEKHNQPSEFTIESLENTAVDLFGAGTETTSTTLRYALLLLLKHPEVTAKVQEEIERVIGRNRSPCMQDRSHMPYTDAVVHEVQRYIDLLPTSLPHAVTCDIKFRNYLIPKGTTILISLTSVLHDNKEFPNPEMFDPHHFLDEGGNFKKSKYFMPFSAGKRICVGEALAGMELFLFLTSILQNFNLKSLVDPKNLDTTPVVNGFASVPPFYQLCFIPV

Cytochrome P450 2D6 = Cytochrome P450 2D6 (Homo sapiens, UniProt P10635); assay: Inhibition of CYP2D6; type: ADME
Sequence of Cytochrome P450 2D6 (P10635 whole entry): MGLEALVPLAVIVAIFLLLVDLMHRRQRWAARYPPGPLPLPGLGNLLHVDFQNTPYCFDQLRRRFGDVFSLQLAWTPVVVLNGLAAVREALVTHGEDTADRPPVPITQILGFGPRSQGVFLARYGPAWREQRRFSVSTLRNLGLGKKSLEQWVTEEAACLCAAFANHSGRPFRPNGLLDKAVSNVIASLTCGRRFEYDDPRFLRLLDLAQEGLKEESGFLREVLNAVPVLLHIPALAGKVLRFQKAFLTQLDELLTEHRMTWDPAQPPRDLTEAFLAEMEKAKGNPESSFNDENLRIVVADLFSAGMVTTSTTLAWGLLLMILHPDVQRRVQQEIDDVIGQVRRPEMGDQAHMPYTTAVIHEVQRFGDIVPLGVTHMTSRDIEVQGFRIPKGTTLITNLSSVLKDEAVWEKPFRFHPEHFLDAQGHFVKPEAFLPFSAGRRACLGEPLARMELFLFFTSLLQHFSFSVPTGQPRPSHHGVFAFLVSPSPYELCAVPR

Cytochrome P450 3A4 = Cytochrome P450 3A4 (Homo sapiens, UniProt P08684); assay: Inhibition of CYP3A4; type: ADME
Sequence of Cytochrome P450 3A4 (P08684 whole entry): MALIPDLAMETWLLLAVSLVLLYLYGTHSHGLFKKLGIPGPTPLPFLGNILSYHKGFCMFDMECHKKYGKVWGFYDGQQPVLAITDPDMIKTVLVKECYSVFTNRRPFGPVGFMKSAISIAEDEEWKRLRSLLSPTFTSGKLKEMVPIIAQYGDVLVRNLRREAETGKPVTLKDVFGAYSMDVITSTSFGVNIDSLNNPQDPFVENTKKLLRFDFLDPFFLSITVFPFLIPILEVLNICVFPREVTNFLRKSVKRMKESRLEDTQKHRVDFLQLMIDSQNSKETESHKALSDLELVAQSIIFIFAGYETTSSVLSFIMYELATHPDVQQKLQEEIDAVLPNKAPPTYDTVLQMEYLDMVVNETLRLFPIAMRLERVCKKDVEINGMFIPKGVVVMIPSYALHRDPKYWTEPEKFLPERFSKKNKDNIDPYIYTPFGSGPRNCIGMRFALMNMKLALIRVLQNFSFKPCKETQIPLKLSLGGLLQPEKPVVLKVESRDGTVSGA

[3] = Binding affinity to […] channel diltiazem binding site
[4] = Inhibition of potassium channel IKr
[5] = target: Sodium channel protein type 5 subunit alpha (Homo sapiens, UniProt Q14524); assay: Inhibition of Voltage-gated sodium channel subunit alpha Nav1.5
Sequence of Sodium channel protein type 5 subunit alpha (Q14524 whole entry): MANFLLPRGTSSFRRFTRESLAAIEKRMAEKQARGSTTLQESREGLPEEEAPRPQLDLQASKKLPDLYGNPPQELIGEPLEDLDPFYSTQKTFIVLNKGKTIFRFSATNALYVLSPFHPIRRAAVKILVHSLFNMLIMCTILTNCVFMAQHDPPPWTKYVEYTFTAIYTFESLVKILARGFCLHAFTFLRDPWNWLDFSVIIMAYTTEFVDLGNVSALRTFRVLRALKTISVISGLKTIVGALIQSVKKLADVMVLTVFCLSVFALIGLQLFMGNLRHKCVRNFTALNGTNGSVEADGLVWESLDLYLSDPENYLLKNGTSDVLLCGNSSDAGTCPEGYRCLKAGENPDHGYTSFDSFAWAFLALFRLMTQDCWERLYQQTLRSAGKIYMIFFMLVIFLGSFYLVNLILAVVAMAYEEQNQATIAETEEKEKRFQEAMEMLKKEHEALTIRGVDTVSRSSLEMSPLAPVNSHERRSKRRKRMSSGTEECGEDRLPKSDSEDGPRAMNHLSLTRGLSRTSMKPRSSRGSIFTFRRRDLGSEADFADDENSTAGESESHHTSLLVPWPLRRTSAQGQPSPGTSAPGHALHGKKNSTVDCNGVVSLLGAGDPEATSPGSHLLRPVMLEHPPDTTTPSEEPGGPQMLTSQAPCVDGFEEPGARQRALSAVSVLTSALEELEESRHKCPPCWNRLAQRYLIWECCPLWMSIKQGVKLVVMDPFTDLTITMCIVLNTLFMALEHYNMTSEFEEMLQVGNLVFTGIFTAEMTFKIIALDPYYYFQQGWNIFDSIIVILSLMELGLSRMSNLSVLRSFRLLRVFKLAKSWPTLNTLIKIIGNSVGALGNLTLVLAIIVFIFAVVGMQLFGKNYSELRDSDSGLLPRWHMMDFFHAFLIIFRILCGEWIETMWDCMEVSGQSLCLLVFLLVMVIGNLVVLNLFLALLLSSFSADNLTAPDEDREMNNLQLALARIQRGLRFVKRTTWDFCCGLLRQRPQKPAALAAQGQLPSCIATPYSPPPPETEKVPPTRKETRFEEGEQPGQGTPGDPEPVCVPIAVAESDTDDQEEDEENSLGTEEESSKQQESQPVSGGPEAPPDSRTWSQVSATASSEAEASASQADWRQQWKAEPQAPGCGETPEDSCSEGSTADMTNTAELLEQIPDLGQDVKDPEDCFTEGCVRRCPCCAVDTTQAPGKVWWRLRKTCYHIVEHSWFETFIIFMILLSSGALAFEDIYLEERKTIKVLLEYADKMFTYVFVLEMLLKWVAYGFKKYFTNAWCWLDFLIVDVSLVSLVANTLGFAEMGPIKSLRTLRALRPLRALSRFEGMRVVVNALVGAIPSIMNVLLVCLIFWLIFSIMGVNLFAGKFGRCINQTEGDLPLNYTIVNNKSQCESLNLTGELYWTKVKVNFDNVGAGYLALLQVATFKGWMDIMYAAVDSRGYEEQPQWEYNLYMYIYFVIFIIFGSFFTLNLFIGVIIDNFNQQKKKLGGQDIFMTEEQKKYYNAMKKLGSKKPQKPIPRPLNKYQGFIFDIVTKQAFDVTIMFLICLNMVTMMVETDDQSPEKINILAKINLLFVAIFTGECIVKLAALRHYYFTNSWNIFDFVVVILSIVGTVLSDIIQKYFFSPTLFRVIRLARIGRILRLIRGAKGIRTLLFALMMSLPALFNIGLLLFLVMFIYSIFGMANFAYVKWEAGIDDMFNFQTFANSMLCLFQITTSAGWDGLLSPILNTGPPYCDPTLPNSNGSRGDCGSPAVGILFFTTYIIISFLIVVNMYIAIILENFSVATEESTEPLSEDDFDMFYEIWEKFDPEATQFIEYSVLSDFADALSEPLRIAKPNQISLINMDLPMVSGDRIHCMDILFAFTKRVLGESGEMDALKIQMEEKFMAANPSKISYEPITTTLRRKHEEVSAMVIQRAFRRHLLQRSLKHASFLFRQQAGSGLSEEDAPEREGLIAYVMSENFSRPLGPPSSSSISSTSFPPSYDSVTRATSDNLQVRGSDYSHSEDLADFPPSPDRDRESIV

[6] = target: T2, Bifunctional epoxide hydrolase 2; assay: Inhibition of human soluble epoxide hydrolase in HEK293 cells assessed as DHET production; type: cell-based
Blood = assay: Inhibition of DHET production in rat whole blood at 1 uM after 1 hr; type: functional; parameters: Activity: scale not given: the % may be the effect or the level left

| Structure (SMILES) | IC50 (Epoxide hydrolase 1) [µM] | IC50 [1] [µM] | IC50 [2] [µM] | IC50 (Cytochrome P450 2C9) [µM] | IC50 (Cytochrome P450 2D6) [µM] | IC50 (Cytochrome P450 3A4) [µM] | IC50 [3] [µM] | IC50 [6] [µM] | IC50 ([6]; hek293) [µM] | IC50 [4] [µM] | IC50 [5] [µM] | Activity (Blood) [%] |
| --- | --- | --- | --- | --- | --- | --- | --- | --- | --- | --- | --- | --- |
| O=C(CCc1ccccc1)N1CCC2(CCc3cc(F)ccc3O2)CC1 | > 100 | 0.007 | 0.01 | < 10 | < 10 | > 10 | 3 | 0.003 | – | 6 | < 10 | – |
| O=C(N[C@H]1C[C@@H]1c1ccccc1)N1CCC2(CC1)CC(O)c1ncccc1O2 (relative stereo) | > 100 | 0.008 | 0.031 | > 10 | > 10 | > 10 | > 30 | 0.008 | – | > 30 | > 10 | 7.3 |
| O=C1CC2(CCN(C(=O)NC3CCc4ccccc4CC3)CC2)Oc2ccccc21 | – | 0.008 | 0.028 | – | – | – | 5 | – | – | 5 | – | – |
| O=C1CC2(CCN(C(=O)NC3CCc4ccccc43)CC2)Oc2ccccc21 (racemic) | 28 | 0.02 | 0.035 | < 10 | > 10 | > 10 | 6 | 0.03 | – | 6 | < 10 | – |
| O=C1CC2(CCN(C(=O)N[C@H]3C[C@@H]3c3ccccc3)CC2)Oc2ccccc21 (relative stereo) | > 100 | 0.011 | 0.029 | > 10 | > 10 | > 10 | – | – | 0.003 | 17 | > 10 | – |

Second part, led by results:

| IC50 (Epoxide hydrolase 1) [µM] | IC50 [1] [µM] | IC50 [2] [µM] | IC50 (Cytochrome P450 2C9) [µM] | IC50 (Cytochrome P450 2D6) [µM] | IC50 (Cytochrome P450 3A4) [µM] | IC50 [3] [µM] | IC50 [6] [µM] | IC50 ([6]; hek293) [µM] | Structure (SMILES) | IC50 [4] [µM] | IC50 [5] [µM] | Activity (Blood) [%] |
| --- | --- | --- | --- | --- | --- | --- | --- | --- | --- | --- | --- | --- |
| 10 | 0.007 | 0.021 | < 10 | > 10 | > 10 | 18 | – | – | CS(=O)(=O)c1ccc2c(c1)C(=O)CC1(CCN(C(=O)N[C@@H]3CC[C@@H](c4ccccc4)C3)CC1)O2 (racemic) | 3 | > 10 | – |
| > 100 | 0.004 | 0.011 | < 10 | > 10 | > 10 | 6 | – | – | O=C(N[C@H]1C[C@@H]1c1ccccc1)N1CCC2(CCc3ccccc3O2)CC1 (racemic) | 15 | > 10 | 20 |
| 24 | 0.003 | 0.023 | > 10 | > 10 | > 10 | 28 | < 0.001 | – | CS(=O)(=O)c1ccc2c(c1)CCC1(CCN(C(=O)N[C@H]3C[C@@H]3c3ccccc3)CC1)O2 | 15 | > 10 | – |
| > 100 | 0.003 | 0.018 | < 10 | > 10 | > 10 | 2 | < 0.001 | – | O=C(N[C@H]1C[C@@H]1c1ccccc1)N1CCC2(CCc3cc(F)ccc3O2)CC1 (racemic) | 7 | > 10 | – |
| – | 0.003 | 0.009 | 10 | > 10 | > 10 | > 30 | 0.003 | – | O=C1CC2(CCN(C(=O)N[C@H]3C[C@@H]3c3ccccc3)CC2)Oc2ccccc21 | 14 | > 10 | – |
| 26 | 0.005 | 0.039 | > 10 | > 10 | > 10 | 9 | – | – | O=C1CC2(CCN(C(=O)NC3CCc4ccccc4C3)CC2)Oc2ccccc21 (racemic) | 12 | 1 | – |
| > 100 | 0.001 | 0.007 | < 10 | < 10 | < 10 | 4 | – | – | O=C1CC2(CCN(C(=O)N[C@H]3C[C@@H]3c3ccccc3)CC2)Oc2ccc(-c3ccncc3)cc21 (racemic) | 0.2 | > 10 | – |
